Laboratory results taken from patent EP3800188A1, “SUBSTITUTED PYRAZOLOPYRIMIDINES AS IRAK4 INHIBITORS” (Bayer AG, priority 2019, dated 2021).

How the values were obtained:
[1] = Metabolic stability in human liver microsomes; details: 1 µM compound; for CLblood, human microsomes: hepatic in vivo blood clearance calculated with well stirred liver model, '(stable)' given beside < 0.01; for Fmax, human microsomes: maximal oral bioavailability calculated with well stirred liver model, 0.5 mg/mL protein, '(stable)' given beside 100
Experimental: The in vitro metabolic stability of test compounds was determined by incubating them at 1 µM in a suspension liver microsomes in 100 mM phosphate buffer, pH7.4 (NaH2PO4 x H2O + Na2HPO4 x 2H2O) and at a protein concentration of 0.5 mg/mL at 37° C. The microsomes were activated by adding a co-factor mix containing 8 mM Glukose-6-Phosphat, 4 mM MgCl2, 0.5 mM NADP and 1 IU/mL G-6-P-Dehydrogenase in phosphate buffer, pH 7.4. The metabolic assay was started shortly afterwards by adding the test compound to the incubation at a final volume of 1 mL. Organic solvent in the incubations was limited to ≤0.01 % dimethylsulfoxide (DMSO) and ≤1% acetonitril. During incubation, the microsomal suspensions were continuously shaken at 580 rpm, and aliquots were taken at 2, 8, 16, 30, 45 and 60 min, to which equal volumes of cold methanol were immediately added. Samples were frozen at -20° C over night, subsequently centrifuged for 15 min at 3000 rpm and the supernatant was analyzed with an Agilent 1200 HPLC-system with LCMS/MS detection.
The half-life of a test compound was determined from the concentration-time plot. From the half-life the intrinsic clearances were calculated. Together with the additional parameters liver blood flow, specific liver weight and microsomal protein content the hepatic in vivo blood clearance (CL) and the maximal oral bioavailability (Fmax) were calculated using the "well stirred" liver model. The following parameter values were used: Liver blood flow - 1.32 L/h/kg (human), 2.1 L/h/kg (dog); specific liver weight - 21 g/kg (human), 39 g/kg (dog); microsomal protein content - 40 mg/g.

human IRAK4 = molecular target: T1, human IRAK4 (Homo sapiens, UniProt Q9NWZ3); experiment: Human IRAK4 kinase activity inhibition assay (IRAK4 TR-FRET assay); format: biochemical; details: 1 mM ATP, GST-human IRAK4, average or median values
T1 construct: GST (N); made in house; host or cells: baculovirus-infected Hi5 (BTI-TN-5B1-4) insect cells
T1 sequence (Q9NWZ3 1-460): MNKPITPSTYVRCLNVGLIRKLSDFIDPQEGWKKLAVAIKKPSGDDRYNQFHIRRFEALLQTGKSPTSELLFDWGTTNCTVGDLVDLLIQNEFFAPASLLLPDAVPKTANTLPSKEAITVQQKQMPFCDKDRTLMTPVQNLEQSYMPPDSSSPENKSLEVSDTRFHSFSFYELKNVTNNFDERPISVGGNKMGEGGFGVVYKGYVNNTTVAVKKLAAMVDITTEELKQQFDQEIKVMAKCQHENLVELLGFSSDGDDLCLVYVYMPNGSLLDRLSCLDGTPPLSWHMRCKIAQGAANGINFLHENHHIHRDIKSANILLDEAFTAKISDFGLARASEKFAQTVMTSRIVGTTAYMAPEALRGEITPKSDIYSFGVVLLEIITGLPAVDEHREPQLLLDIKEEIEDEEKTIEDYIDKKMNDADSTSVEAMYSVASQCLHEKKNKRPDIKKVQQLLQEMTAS
Method in brief: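 Signal was the 665/620 nm emission ratio from a europium anti-mouse-IgG, anti-phosphoserine antibody and streptavidin-XL665 complex formed over 1 h at 22°C. It was scaled between no-enzyme (100%) and no-compound (0%) wells. Beforehand, compounds (20 µM down to 0.073 nM, 11 points) sat 15 min with roughly 0.2 nM insect-cell-expressed GST-human IRAK4 before phosphorylation of a biotinylated peptide substrate.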

SMILES	CLblood, human microsomes [1]	Fmax, human microsomes [1]	IC50 (human IRAK4) [nM]
OC1(CN2CCCC2)CCN(c2nc(N[C@H]3C[C@@H](O)C3)nc3c2cnn3-c2cccc(C(F)(F)F)c2)CC1 [Example I-114, 1-{6-[(cis-3-hydroxycyclobutyl)amino]-1-[3-(trifluoromethyl)phenyl]-1H-pyrazolo[3,4-d]pyrimidin-4-yl}-4-(pyrrolidin-1-ylmethyl)piperidin-4-ol]	0.21 L/h/kg	84%	8.49
O=S1(=O)CC[C@@H](Nc2nc(N3CC(N4CCOCC4)C3)c3cnn(-c4cccc(C(F)(F)F)c4)c3n2)C1 [Example I-22, N-[(3R)-1,1-dioxidotetrahydrothiophen-3-yl]-4-[3-(morpholin-4-yl)azetidin-1-yl]-1-[3-(trifluoromethyl)phenyl]-1H-pyrazolo[3,4-d]pyrimidin-6-amine]	0.34 L/h/kg	74%	99.3
NC1(C2CCN(c3nc(N[C@@H]4CNC(=O)C4)nc4c3cnn4-c3cccc(C(F)(F)F)c3)CC2)CC1 [Example I-48, (4S)-4-({4-[4-(1-aminocyclopropyl)piperidin-1-yl]-1-[3-(trifluoromethyl)phenyl]-1H-pyrazolo[3,4-d]pyrimidin-6-yl}amino)pyrrolidin-2-one]	< 0.01 (stable) L/h/kg	100 (stable) %	1.12
CC(C)(N)C1CN(c2nc(NC3CCS(=O)(=O)CC3)nc3c2cnn3-c2cccc(C(F)(F)F)c2)C1 [Example I-45, 4-[3-(2-aminopropan-2-yl)azetidin-1-yl]-N-(1,1-dioxidotetrahydro-2H-thiopyran-4-yl)-1-[3-(trifluoromethyl)phenyl]-1H-pyrazolo[3,4-d]pyrimidin-6-amine]	0.05 L/h/kg	96%	5.1
C[C@]1(O)C[C@H](Nc2nc(N3C[C@@H](O)[C@H](O)C3)c3cnn(-c4cccc(C(F)(F)F)c4)c3n2)C1 [Example I-108, (3R,4R)-1-(6-{[(1r,3R)-3-hydroxy-3-methylcyclobutyl]amino}-1-[3-(trifluoromethyl)-phenyl]-1H-pyrazolo[3,4-d]pyrimidin-4-yl)pyrrolidine-3,4-diol]	0.16 L/h/kg	88%	3.72
CC(C)(O)CC1CN(c2nc(N[C@@H]3CNC(=O)C3)nc3c2cnn3-c2cccc(C(F)(F)F)c2)C1 [Example I-49, (4S)-4-({4-[3-(2-hydroxy-2-methylpropyl)azetidin-1-yl]-1-[3-(trifluoromethyl)phenyl]-1H-pyrazolo[3,4-d]pyrimidin-6-yl}amino)pyrrolidin-2-one]	0.13 L/h/kg	90%	3.85
CC1(N2CCOCC2)CN(c2nc(N[C@H]3C[C@@H](O)C3)nc3c2cnn3-c2cccc(C(F)(F)F)c2)C1 [Example I-76, cis-3-({4-[3-methyl-3-(morpholin-4-yl)azetidin-1-yl]-1-[3-(trifluoromethyl)phenyl]-1H-pyrazolo[3,4-d]pyrimidin-6-yl}amino)cyclobutanol]	0.30 L/h/kg	77%	9.61
C[C@]1(O)C[C@@H](Nc2nc(N3CC(N4CCOCC4)C3)c3cnn(-c4cccc(C(F)(F)F)c4)c3n2)C1 [Example I-78, cis-1-methyl-3-({4-[3-(morpholin-4-yl)azetidin-1-yl]-1-[3-(trifluoromethyl)phenyl]-1H-pyrazolo[3,4-d]pyrimidin-6-yl}amino)cyclobutanol]	0.32 L/h/kg	76%	5.62
CC1(O)CCN(C2CN(c3nc(N[C@H]4C[C@@H](O)C4)nc4c3cnn4-c3cccc(C(F)(F)F)c3)C2)CC1 [Example I-109, 1-(1-{6-[(cis-3-hydroxycyclobutyl)amino]-1-[3-(trifluoromethyl)phenyl]-1H-pyrazolo[3,4-d]pyrimidin-4-yl}azetidin-3-yl)-4-methylpiperidin-4-ol]	0.33 L/h/kg	75%	10.6
CC(C)(O)C1CCN(c2nc(N[C@H]3C[C@@]4(CCN4)C3)nc3c2cnn3-c2cccc(C(F)F)c2)CC1 [II-18, 2-(1-{6-[(4r,6s)-1-azaspiro[3.3]heptan-6-ylamino]-1-[3-(difluoromethyl)phenyl]-1H-pyrazolo[3,4-d]pyrimidin-4-yl}piperidin-4-yl)propan-2-ol]	0.10 L/h/kg	93%	1.4
C[C@H]1CN(c2nc(N[C@H]3C[C@H](S(C)(=O)=O)C3)nc3c2cnn3-c2cccc(C(F)F)c2)C[C@@H]1O (single isomer, unassigned) [II-17-2, (3R*,4S*)-1-(1-[3-(difluoromethyl)phenyl]-6-{[trans-3-(methylsulfonyl)cyclobutyl]amino}-1H-pyrazolo[3,4-d]pyrimidin-4-yl)-4-methylpyrrolidin-3-ol]	0.28 L/h/kg	79%	2.1
C[C@]1(N)C[C@@H](Nc2nc(N3CCOCC3)c3cnn(-c4cccc(C(F)(F)F)c4)c3n2)C1 [Example I-58, cis-1-methyl-N^3-{4-(morpholin-4-yl)-1-[3-(trifluoromethyl)phenyl]-1H-pyrazolo[3,4-d]pyrimidin-6-yl}cyclobutane-1,3-diamine]	< 0.01 (stable) L/h/kg	100 (stable) %	23
O[C@H]1CN(c2nc(N[C@H]3C[C@@]4(CCN4)C3)nc3c2cnn3-c2cccc(C(F)(F)F)c2)C[C@@H]1F [Example I-98, (3S,4S)-1-{6-[(4S,6s)-1-azaspiro[3.3]heptan-6-ylamino]-1-[3-(trifluoromethyl)phenyl]-1H-pyrazolo[3,4-d]pyrimidin-4-yl}-4-fluoropyrrolidin-3-ol]	< 0.01 (stable) L/h/kg	100 (stable) %	9.99

Second part, the molecule after the results:

CLblood, human microsomes [1]	Fmax, human microsomes [1]	IC50 (human IRAK4) [nM]	SMILES
0.29 L/h/kg	78%	9.22	CCS(=O)(=O)N1CC(Nc2nc(N3CCC(C(C)(C)O)CC3)c3cnn(-c4cccc(C(F)F)c4)c3n2)C1 [II-31, 2-[1-(1-[3-(difluoromethyl)phenyl]-6-{[1-(ethylsulfonyl)azetidin-3-yl]amino}-1H-pyrazolo[3,4-d]pyrimidin-4-yl)piperidin-4-yl]propan-2-ol]
0.14 L/h/kg	89%	6.61	CS(=O)(=O)N1CC(Nc2nc(N3CCC(C4(N)CC4)CC3)c3cnn(-c4cccc(OC(F)F)c4)c3n2)C1 [IV-3, 4-[4-(1-aminocyclopropyl)piperidin-1-yl]-1-[3-(difluoromethoxy)phenyl]-N-[1-(methylsulfonyl)azetidin-3-yl]-1H-pyrazolo[3,4-d]pyrimidin-6-amine]
0.42 L/h/kg	68%	4.31	O=C(CC1CN(c2nc(NC3CCS(=O)(=O)CC3)nc3c2cnn3-c2cccc(C(F)F)c2)C1)N1CCOCC1 [II-10, 2-(1-{1-[3-(difluoromethyl)phenyl]-6-[(1,1-dioxidotetrahydro-2H-thiopyran-4-yl)amino]-1H-pyrazolo[3,4-d]pyrimidin-4-yl}azetidin-3-yl)-1-(morpholin-4-yl)ethanone]
